Where two headings read alike, the source gives them in different places.
Key:
[1] = biological target: GLP-1R (Homo sapiens, UniProt P43220); test: GLP-1R activation: cAMP increase in CHO cells stably expressing GLP-1R; type: cell-based; conditions: read-out: EC50
[2] = Microsomal stability, human liver microsomes (predicted hepatic clearance); conditions: predicted from in vitro microsomal stability data
[3] = cAMP increase, CHO cells stably expressing GLP-1R, 10 point dose response, 30 minutes incubation

GLP-1R, sequence (P43220 24-463): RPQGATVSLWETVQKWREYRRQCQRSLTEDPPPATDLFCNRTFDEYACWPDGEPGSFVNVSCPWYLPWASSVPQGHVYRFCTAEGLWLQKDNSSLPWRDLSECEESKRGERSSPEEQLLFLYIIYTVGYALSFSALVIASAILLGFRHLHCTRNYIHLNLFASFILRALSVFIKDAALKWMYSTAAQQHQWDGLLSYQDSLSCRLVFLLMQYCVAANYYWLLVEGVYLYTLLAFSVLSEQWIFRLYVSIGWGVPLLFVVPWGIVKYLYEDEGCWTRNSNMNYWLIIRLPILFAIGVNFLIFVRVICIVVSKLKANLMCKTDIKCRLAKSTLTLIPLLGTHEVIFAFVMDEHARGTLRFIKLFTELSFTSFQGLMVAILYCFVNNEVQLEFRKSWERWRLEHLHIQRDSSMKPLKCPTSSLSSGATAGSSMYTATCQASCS

SMILES | EC50 [1] [nM] | Predicted Hepatic Clearance (Pred. Cl.) [2] [mL/min/kg] | EC50 [1, 3] [nM]
N#Cc1ccc(COc2cccc(-c3ccc(Cc4nc5ccc(C(=O)O)cc5n4C[C@@H]4CCN4C4COC4)c(F)c3)n2)c(F)c1 [Example 396, (S)-2-(4-(6-((4-cyano-2-fluorobenzyl)oxy)pyridin-2-yl)-2-fluorobenzyl)-1-((1-(oxetan-3-yl)azetidin-2-yl)methyl)-1H-benzo[d]imidazole-6-carboxylic acid] | 45.5 | 8.67 | –
N#Cc1ccc(COc2cccc(-c3cc(F)c(Cc4nc5ccc(C(=O)O)cc5n4Cc4nccs4)cc3F)n2)c(F)c1 [Example 707] | – | 4 | 4.81
N#CCC1(Cn2c(Cc3ccc(-c4cccc(OCc5ccc(C#N)cc5F)n4)cc3F)nc3ccc(C(=O)O)nc32)CC1 [Example 600, 2-(4-(6-((4-cyano-2-fluorobenzyl)oxy)pyridin-2-yl)-2-fluorobenzyl)-3-((1-(cyanomethyl)cyclopropyl)methyl)-3H-imidazo[4,5-b]pyridine-5-carboxylic acid] | – | 6.7 | 0.1
COCCn1c(Cc2ccc(-c3ncc(F)c(OCc4ccc(C#N)cc4F)n3)c(F)c2F)nc2ccc(C(=O)O)cc21 [Example 169, 2-(4-(4-((4-cyano-2-fluorobenzyl)oxy)-5-fluoropyrimidin-2-yl)-2,3-difluorobenzyl)-1-(2-methoxyethyl)-1H-benzo[d]imidazole-6-carboxylic acid] | – | 5.33 | 4.31
COCCn1c(Cc2ccc(-c3cc(F)cc(OCc4ccc(C#N)cc4F)c3)cc2F)nc2ccc(C(=O)O)cc21 [Example 27, 2-((3′-((4-cyano-2-fluorobenzyl)oxy)-3,5′-difluoro-[1,1′-biphenyl]-4-yl)methyl)-1-(2-methoxyethyl)-1H-benzop[d]imidazole-6-carboxylic acid] | – | 2.5 | 78
N#CCC1(n2c(Cc3ccc(-c4cccc(OCc5ccc(C#N)cc5F)n4)cc3F)nc3ccc(C(=O)O)cc32)CC1 [Example 376, 2-(4-(6-((4-cyano-2-fluorobenzyl)oxy)pyridin-2-yl)-2-fluorobenzyl)-1-(1-(cyanomethyl)cyclopropyl)-1H-benzo[d]imidazole-6-carboxylic acid] | – | 3.83 | 1.53
CO[C@H](C)Cn1c(Cc2cc(F)c(-c3cccc(OCc4ccc(C#N)cc4F)n3)cc2F)nc2ccc(C(=O)O)cc21 [Example 588, (R)-2-(4-(6-((4-cyano-2-fluorobenzyl)oxy)pyridin-2-yl)-2,5-difluorobenzyl)-1-(2-methoxypropyl)-1H-benzo[d]imidazole-6-carboxylic acid] | – | 6.5 | 1.33
N#Cc1ccc(COc2cccc(-c3ccc(Cc4nc5ccc(C(=O)O)cc5n4CC4(CF)CC4)cc3F)n2)c(F)c1 [Example 521, 2-(4-(6-((4-cyano-2-fluorobenzyl)oxy)pyridin-2-yl)-3-fluorobenzyl)-1-((1-(fluoromethyl)cyclopropyl)methyl)-1H-benzo[d]imidazole-6-carboxylic acid] | – | 6.75 | 0.54
N#Cc1ccc(COc2nccc(-c3cc(F)c(Cc4nc5ccc(C(=O)O)nc5n4CC4(CF)CC4)c(F)c3)n2)c(F)c1 [Example 298, 2-(4-(2-((4-cyano-2-fluorobenzyl)oxy)pyrimidin-4-yl)-2,6-difluorobenzyl)-3-((1-(fluoromethyl)cyclopropyl)methyl)-3H-imidazo[4,5-b]pyridine-5-carboxylic acid] | – | <1.83 | 4.75
N#Cc1ccc(COc2cccc(-c3cc(F)c(Cc4nc5ccc(C(=O)O)cc5n4[C@@H]4COC[C@@H]4O)cc3F)n2)c(F)c1 [Example 614] | – | 1.83 | 0.79
N#Cc1ccc(COc2cccc(-c3ccc(Cc4nc5ccc(C(=O)O)cc5n4CC4(CO)CC4)c(F)c3)n2)c(F)c1 [Example 375, 2-(4-(6-((4-cyano-2-fluorobenzyl)oxy)pyridin-2-yl)-2-fluorobenzyl)-1-((1-(hydroxymethyl)cyclopropyl)methyl)-1H-benzo[d]imidazole-6-carboxylic acid] | – | 4.25 | 5.46
CN1CC2CC1(Cn1c(Cc3cc(F)c(-c4cccc(OCc5ccc(C#N)cc5F)n4)cc3F)nc3ccc(C(=O)O)cc31)C2 [Example 697] | 25.6 | 1.83 | –
COCCn1c(Cc2ccc(-c3cccc(OCc4ccc(C#N)cc4F)n3)cc2Cl)nc2ccc(C(=O)O)cc21 [Example 38, 2-(2-chloro-4-(6-((4-cyano-2-fluorobenzyl)oxy)pyridin-2-yl)benzyl)-1-(2-methoxyethyl)-1H-benzo[d]imidazole-carboxylic acid] | – | 5.33 | 6.18
O=C(O)c1ccc2nc(Cc3cc(F)c(-c4cccc(OCc5ccc(C(F)(F)F)cc5F)n4)cc3F)n(C[C@@H]3CCO3)c2c1 [Example 665] | – | 1.83 | 0.51
O=C(O)c1ccc2nc(Cc3cc(F)c(-c4cccc(OCc5cnc(Cl)cc5F)n4)cc3F)n(C[C@@H]3CCO3)c2c1 [Example 851] | – | 2.5 | 0.25
N#CCCn1c(Cc2cc(F)c(-c3cccc(OCc4ccc(C#N)cc4F)n3)cc2F)nc2ccc(C(=O)O)cc21 [Example 305, 2-(4-(6-((4-cyano-2-fluorobenzyl)oxy)pyridin-2-yl)-2,5-difluorobenzyl)-1-(2-cyanoethyl)-1H-benzo[d]imidazole-6-carboxylic acid] | – | 4.67 | 1.25
COCCn1c(Cc2ccc(-c3cccc(OCc4ccc(C#N)cc4OCC(F)(F)F)n3)cc2F)nc2ccc(C(=O)O)cc21 [Example 236, 2-(4-(6-((4-cyano-2-(2,2,2-trifluoroethoxy)benzyl)oxy)pyridin-2-yl)-2-fluorobenzyl)-1-(2-methoxyethyl)-1H-benzo[d]imidazole-6-carboxylic acid] | – | <1.83 | 306
COC[C@H](C)n1c(Cc2cc(F)c(-c3cccc(OCc4ccc(C#N)cc4F)n3)cc2F)nc2ccc(C(=O)O)cc21 [Example 559, (S)-2-(4-(6-((4-cyano-2-fluorobenzyl)oxy)pyridin-2-yl)-2,5-difluorobenzyl)-1-(1-methoxypropan-2-yl)-1H-benzo[d]imidazole-6-carboxylic acid] | – | 6.83 | 2.62
COCCn1c(Cc2cc(F)c(-c3cccc(OCc4ccc(C)nc4F)n3)cc2F)nc2ccc(C(=O)O)cc21 [Example 822] | – | 1.83 | 3.49
COCCn1c(Cc2ccc(-c3cccc(OCc4ccc(F)cc4OC)n3)cc2F)nc2ccc(C(=O)O)cc21 [Example 252, 2-(2-fluoro-4-(6-((4-fluoro-2-methoxybenzyl)oxy)pyridin-2-yl)benzyl)-1-(2-methoxyethyl)-1H-benzo[d]imidazole-6-carboxylic acid] | – | <1.83 | 3.78
